Here are results for one molecule from publication PMC6131501, “Urate transporter inhibitor lesinurad is a selective peroxisome proliferator-activated receptor gamma modulator (sPPARγM) in vitro” (Scientific Reports, 2018).

Like-named read-outs stand apart in the source and are kept apart here.

In one series the target is T1, PPARγ (Homo sapiens, UniProt P37231).
T1 construct: expressed in transfected cells; host or cells: HEK293T
T1 sequence (P37231 238-503 limits assumed): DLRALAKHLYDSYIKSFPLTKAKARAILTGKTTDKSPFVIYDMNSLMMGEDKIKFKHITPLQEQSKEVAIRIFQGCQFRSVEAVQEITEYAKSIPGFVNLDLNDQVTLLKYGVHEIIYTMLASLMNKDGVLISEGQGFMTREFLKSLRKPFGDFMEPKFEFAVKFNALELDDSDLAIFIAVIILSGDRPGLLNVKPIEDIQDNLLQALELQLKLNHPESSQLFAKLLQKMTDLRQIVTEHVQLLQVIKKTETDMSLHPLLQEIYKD
The experiment in a line: Gal4 hybrid reporter gene assay PPARγ. Format: cell-based. From the text: (§1) These in vitro test systems are based on a constitutively expressed hybrid receptor composed of the ligand binding domain of the respective human nuclear receptor and the DNA binding domain of the yeast receptor Gal4. A Gal4-inducible firefly luciferase serves as reporter gene and a constitutively expressed renilla luciferase is used for normalization of transfection efficacy and internal toxicity control[18],[19]. […] The Gal4-fusion receptor plasmids pFA-CMV-hPPARα-LBD[50], pFA-CMV-hPPARγ-LBD[50], pFA-CMV-hPPARδ-LBD[50], pFA-CMV-hLXRα-LBD[51], pFA-CMV-hLXRβ-LBD[51], pFA-CMV-hRXRα-LBD[52], pFA-CMV-hRXRβ-LBD[52], pFA-CMV-hRXRγ-LBD[52], pFA-CMV-hRARα-LBD[52], pFA-CMV-hRARβ-LBD[52], pFA-CMV-hRARγ-LBD[52], pFA-CMV-hFXR-LBD[53], pFA-CMV-hVDR-LBD[52], pFA-CMV-hCAR-LBD[52] and pFA-CMV-hPXR-LBD[52] coding for the hinge region and ligand binding domain (LBD) of the canonical isoform of the respective nuclear receptor have been reported previously. pFR-Luc (Stratagene) was used as reporter plasmid and pRL-SV40 (Promega) for normalization of transfection efficiency and cell growth.
(§2) HEK293T cells were grown in DMEM high glucose, supplemented with 10% FCS, sodium pyruvate (1 mM), penicillin (100 U/mL) and streptomycin (100 μg/mL) at 37 °C and 5% CO2. The day before transfection, HEK293T cells were seeded in 96-well plates (3·10^4 cells/well). Before transfection, medium was changed to Opti-MEM without supplements. Transient transfection was carried out using Lipofectamine LTX reagent (Invitrogen) according to the manufacturer’s protocol with pFR-Luc (Stratagene), pRL-SV40 (Promega) and the corresponding Gal4-fusion nuclear receptor plasmid. 5 h after transfection, medium was changed to Opti-MEM supplemented with penicillin (100 U/mL), streptomycin (100 μg/mL), now additionally containing 0.1% DMSO and the respective test compound or 0.1% DMSO alone as untreated control. Each concentration was tested in duplicates and each experiment was repeated independently at least three times. Following overnight (12-14 h) incubation with the test compounds, cells were assayed for luciferase activity using Dual-Glo™ Luciferase Assay System (Promega) according to the manufacturer’s protocol. Luminescence was measured with an Infinite M200 luminometer (Tecan Deutschland GmbH). […] Fold activation was obtained by dividing the mean RLU of a test compound at a respective concentration by the mean RLU of untreated control.

The target of series [1] is pregnane X receptor (PXR) (Homo sapiens, UniProt O75469). Briefly: Gal4 hybrid reporter gene assay PXR.
Text: as §1
HEK293T cells were grown in DMEM high glucose, supplemented with 10% FCS, sodium pyruvate (1 mM), penicillin (100 U/mL) and streptomycin (100 μg/mL) at 37 °C and 5% CO2. […] Luminescence was measured with an Infinite M200 luminometer (Tecan Deutschland GmbH). […]
For orientation: A reporter such as luciferase makes a cellular process visible.

Another series addresses T2, full-length PPARγ (Homo sapiens, UniProt P37231).
T2 construct: host or cells: HEK293T
Briefly: Full-length PPARγ reporter gene assay. Format: cell-based. As to the method: as §2, with “Transient transfection was carried out using Lipofectamine LTX reagent (Invitrogen) according to the manufacturer’s protocol with pFR-Luc (Stratagene), pRL-SV40 (Promega) and the corresponding Gal4-fusion nuclear receptor plasmid.” left out

A further series concerns the target PPARγ LBD / CBP (Homo sapiens, UniProt P37231). The experiment in a line: PPARγ coactivator recruitment assay (time-resolved FRET), CBP. The format is biochemical. From the text: We analyzed the ability of lesinurad to induce recruitment of the coactivators steroid receptor coactivator 1 (SRC-1, also known as nuclear receptor coactivator 1 (NCOA1)) and cyclic AMP responsive element binding (CREB) protein (CBP) to the PPARγ ligand binding domain in a time-resolved FRET assay with labeled PPARγ-LBD and coactivator proteins (Fig. 5D).
Recruitment of coactivator-derived peptides to the PPARγ LBD was studied by homogeneous time-resolved fluorescence resonance energy transfer (HT-FRET or HTRF). Terbium cryptate as streptavidin conjugate (cisbio assays, France) was used as FRET donor. Peptides derived from coactivators SRC-1 [biotin-[…]] or CBP [biotin-[…]] encompassing the coactivator consensus motif LxxLL and N-terminal biotin for stable coupling to streptavidin were purchased (Eurogentec GmbH, Germany). […] FI520 nm was divided by FI620 nm and multiplied with 10,000 giving a dimensionless HTRF signal. Coactivator recruitment by the PPARγ LBD brings FRET donor and acceptor into close proximity resulting in a gain in FRET signal as signal for binding.

Series [2] is described as follows: Aqueous solubility (noted for ITC). Format: physicochemical. From the text:
To confirm direct modulation of PPARγ by lesinurad, we analyzed their interaction by isothermal titration calorimetry (ITC). Due to limited solubility of lesinurad, recombinant PPARγ ligand binding domain (LBD) protein was (reversely) titrated to the drug.

The subject of series [3] is urate transporter 1 (URAT1). On the set-up: method as in PMID 27716403. The following applies: cited from earlier work.
The conditions of series [4]: cited from earlier work; for peak plasma levels: oral dose of 200 mg.
On the set-up of series [5]: method as in PMID 27716403, PMID 26951201. The following applies: cited from earlier work.

Sequence of pregnane X receptor (PXR) (O75469 146-433 limits assumed): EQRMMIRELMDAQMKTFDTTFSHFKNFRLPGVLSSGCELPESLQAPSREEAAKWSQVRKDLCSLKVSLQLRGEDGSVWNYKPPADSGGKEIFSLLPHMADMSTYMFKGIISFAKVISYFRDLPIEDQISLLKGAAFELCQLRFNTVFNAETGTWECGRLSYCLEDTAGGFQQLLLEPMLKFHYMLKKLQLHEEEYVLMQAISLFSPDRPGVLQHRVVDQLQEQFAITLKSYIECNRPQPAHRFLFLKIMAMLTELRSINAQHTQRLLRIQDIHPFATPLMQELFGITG
Sequence of PPARγ LBD / CBP (Q92793 58-80 partner limits assumed, one chain of several): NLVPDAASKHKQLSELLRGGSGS
T2 sequence (P37231 whole entry): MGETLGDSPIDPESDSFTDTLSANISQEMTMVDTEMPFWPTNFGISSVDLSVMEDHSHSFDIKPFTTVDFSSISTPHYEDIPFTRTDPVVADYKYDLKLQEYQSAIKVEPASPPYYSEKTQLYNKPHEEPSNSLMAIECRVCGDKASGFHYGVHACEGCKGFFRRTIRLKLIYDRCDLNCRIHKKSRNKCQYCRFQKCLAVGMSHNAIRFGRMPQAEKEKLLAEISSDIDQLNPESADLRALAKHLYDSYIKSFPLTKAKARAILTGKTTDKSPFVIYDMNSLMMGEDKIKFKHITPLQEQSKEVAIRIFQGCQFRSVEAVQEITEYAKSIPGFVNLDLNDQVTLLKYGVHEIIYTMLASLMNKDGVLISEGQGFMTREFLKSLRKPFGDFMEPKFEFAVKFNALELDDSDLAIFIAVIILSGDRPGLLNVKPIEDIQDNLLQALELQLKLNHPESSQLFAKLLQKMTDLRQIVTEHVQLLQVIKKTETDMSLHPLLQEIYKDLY

One may read the EC50 as the concentration that produces a half-maximal response. A lower EC50 goes with an effect from little substance. One may read the IC50 as the midpoint of a concentration-inhibition curve. In the case of `O=C(O)CSc1nnc(Br)n1-c1ccc(C2CC2)c2ccccc12` [lesinurad], the Gal4-PPARγ transactivation entry on PPARγ (30 μM) is listed as “robustly transactivated”. Also, the EC50 was 18.5 ± 0.7 µM at PPARγ (Gal4 hybrid reporter, HEK293T, 12-14 h, mean ± SEM, at least three experiments); 19 ± 1 µM in series [1]; 21 ± 2 µM at full-length PPARγ (full-length human PPARγ, HEK293T, mean ± SEM); 44 ± 8 µM at PPARγ LBD / CBP (HTRF, PPARγ LBD, 2 h at RT). For the same molecule, the PXR transactivation efficacy in series [1] (vs. 1 µM SR12813) was determined as 145 ± 9%. For the same molecule, the “transactivation efficacy on full-length PPARγ” value on full-length PPARγ (compared to reference agonists) was “higher transactivation efficacy than pioglitazone and rosiglitazone”. The CBP recruitment efficacy at PPARγ LBD / CBP (compared to 1 μM rosiglitazone) turned out to be 59 ± 4%. For the same molecule, the aqueous solubility entry in series [2] is listed as “limited aqueous solubility”. Moreover, the IC50 in series [3] is 3.5 µM. Besides, the free concentration in series [4] (free plasma concentration after protein binding) was 300 to 600 nM. The peak plasma levels in series [4] (ref 40) is 15 µM; in series [4] (ref 41) it was 17 µM. Further, in series [4] (single 600 mg oral dose, healthy men), the “mean peak plasma levels” value was 22 µg/mL. In addition, the plasma protein binding in series [5] is listed as 98%.
